Patent US9802927B2, “Oxadiazine compounds and methods of use thereof” (Denali Therapeutics, Inc., priority 2015, dated 2017)
pEC50: −log10 of the molar value.

Test system: Aβ42
Assay: In vitro cell screening assay in H4 cells expressing human APP751: Aβ42 by sandwich ELISA
Type: cell-based
Settings: compounds 0.003-10 μM, incubated overnight (16-18 h), sandwich ELISA of supernatant
Summary of the method: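 H4 neuroglioma cells stably expressing wild-type human APP751, switched to Pro293 medium and treated with compounds (0.003-10 μM, 0.33% DMSO) for 16-18 h at 37 °C. Supernatant Aβ42 quantified by sandwich ELISA (C-terminal capture, 4G8-HRP detection, A450); EC50 by sigmoidal fit normalized to DMSO and DAPT controls.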

| SMILES | pEC50 |
| --- | --- |
| COc1nc(C2=NOCC(c3ccc(Cl)c(C)c3)N2)ccc1-n1cnc(C)c1 (single isomer, unassigned; (-)) [Example 86A, (−)-5-(4-chloro-3-methylphenyl)-3-(6-methoxy-5-(4-methyl-1H-imidazol-1-yl)pyridin-2-yl)-5,6-dihydro-4H-1,2,4-oxadiazine] | 5.81 |
| COc1nc(C2=NOCC(C3CCS(=O)(=O)CC3)N2)ccc1-n1cnc(C)c1 (single isomer, unassigned; (-)) [Example 177B, (−)-4-(3-(6-methoxy-5-(4-methyl-1H-imidazol-1-yl)pyridin-2-yl)-5,6-dihydro-4H-1,2,4-oxadiazin-5-yl) tetrahydro-2H-thiopyran 1,1-dioxide] | < 5.52 |
| COc1nc(C2=NOCC(c3ccc4scnc4c3)N2)ccc1-n1cnc(C)c1 (single isomer, unassigned; (-)) [Example 240A, (−)-5-(benzo[d]thiazol-5-yl)-3-(6-methoxy-5-(4-methyl-1H-imidazol-1-yl)pyridin-2-yl)-5,6-dihydro-4H-1,2,4-oxadiazine] | < 5.52 |
| COc1nc(C2=NOCC(c3cccc(C(F)(F)F)c3)N2)ccc1-n1cnc(C)c1 (single isomer, unassigned; (-)) [Example 113A, (−)-3-(6-methoxy-5-(4-methyl-1H-imidazol-1-yl)pyridin-2-yl)-5-(3-(trifluoromethyl)phenyl)-5,6-dihydro-4H-1,2,4-oxadiazine] | < 5.52 |
| COc1nc(C2=NOCC(c3ccc(Cl)c(C4CC4)c3)N2)ccc1-n1cnc(C)c1 (single isomer, unassigned; (+)) [Example 239B, (+)-5-(4-chloro-3-cyclopropylphenyl)-3-(6-methoxy-5-(4-methyl-1H-imidazol-1-yl)pyridin-2-yl)-5,6-dihydro-4H-1,2,4-oxadiazine] | 7.88 |
| COc1nc(C2=NOCC(c3ccc(C)cc3)N2)ccc1-n1cnc(C)c1 (single isomer, unassigned; (+)) [Example 227B, (+)-3-(6-methoxy-5-(4-methyl-1H-imidazol-1-yl)pyridin-2-yl)-5-(p-tolyl)-5,6-dihydro-4H-1,2,4-oxadiazine] | 7.13 |
| COc1nc(C2=NOCC(c3cccc(S(C)(=O)=O)c3)N2)ccc1-n1cnc(C)c1 (single isomer, unassigned; (-)) [Example 214A, (−)-3-(6-methoxy-5-(4-methyl-1H-imidazol-1-yl)pyridin-2-yl)-5-(3-(methylsulfonyl)phenyl)-5,6-dihydro-4H-1,2,4-oxadiazine] | < 5.52 |
| COc1nc(C2=NOCC(c3cn(C)c4cc(F)c(F)cc34)N2)ccc1-n1cnc(C)c1 (single isomer, unassigned; (+)) [Example 223B, (+)-5-(5,6-difluoro-1-methyl-1H-indol-3-yl)-3-(6-methoxy-5-(4-methyl-1H-imidazol-1-yl)pyridin-2-yl)-5,6-dihydro-4H-1,2,4-oxadiazine] | 8.21 |
| COc1nc(C2=NOCC(c3cn(C)c4ccc(C(F)(F)F)cc34)N2)ccc1-n1cnc(C)c1 (single isomer, unassigned; (-)) [Example 233A, (−)-3-(6-methoxy-5-(4-methyl-1H-imidazol-1-yl)pyridin-2-yl)-5-(1-methyl-5-(trifluoromethyl)-1H-indol-3-yl)-5,6-dihydro-4H-1,2,4-oxadiazine] | 7.02 |
| COc1nc(C2=NOCC(c3cn(C)c4cc(C#N)ccc34)N2)ccc1-n1cnc(C)c1 (single isomer, unassigned; (-)) [Example 249A, (−)-3-(3-(6-methoxy-5-(4-methyl-1H-imidazol-1-yl)pyridin-2-yl)-5,6-dihydro-4H-1,2,4-oxadiazin-5-yl)-1-methyl-1H-indole-6-carbonitrile] | 6.37 |
| COc1nc(C2=NOCC(c3ccccc3C)N2)ccc1-n1cnc(C)c1 (single isomer, unassigned; (+)) [Example 131A, (+)-3-(6-methoxy-5-(4-methyl-1H-imidazol-1-yl)pyridin-2-yl)-5-(o-tolyl)-5,6-dihydro-4H-1,2,4-oxadiazine] | 6.99 |
